According to patent US7157468B2, “Pyrazole derivatives” (Pfizer Inc., priority 2002, dated 2007):

Molecular target: T1, HIV-1 reverse transcriptase (Human immunodeficiency virus type 1 group M subtype B, UniProt P04585)
T1 construct: purified recombinant HIV-1 reverse transcriptase (RT, EC, 2.7.7.49); made in house; host or cells: Escherichia coli
Experiment: Inhibition of HIV-1 Reverse Transcriptase Enzyme
Assay type: biochemical
Conditions: purified recombinant HIV-1 RT expressed in Escherichia Coli; [3H]-SPA or [3H]-flashplate enzyme assay; 5% final DMSO
Description: The activity of the compounds of the invention as reverse transcriptase inhibitors may be measured using the following assay.
Inhibition of HIV-1 Reverse Transcriptase Enzyme
Using purified recombinant HIV-1 reverse transcriptase (RT, EC, 2.7.7.49) obtained by expression in Escherichia Coli, a 96-well plate assay system is established for assaying a large number of samples using either the Poly(rA)-oligo(dT) Reverse Transcriptase [3H]-SPA enzyme assay system (Amersham NK9020) or the [3H]-flashplate enzyme assay system (NEN-SMP 103) and following the manufacturer's recommendations. The compounds are dissolved in 100% DMSO and diluted with the appropriate buffer to a 5% final DMSO concentration. The inhibitory activity is expressed in percent inhibition relative to DMSO control.

| SMILES | IC50 [nM] |
| --- | --- |
| Cc1n[nH]c(CC(=O)N2CCc3ccccc3C2)c1Oc1cc(Cl)cc(Cl)c1 [Example 8, 2-[4-(3,5-Dichloro-phenoxy)-5-methyl-2H-pyrazol-3-yl]-1-(3,4-dihydro-1H-isoquinolin-2-yl)-ethanone] | 10 |
| Cc1n[nH]c(CC(=O)N2CCc3ccccc3C2)c1Oc1cc(Cl)cc(C#N)c1 [Example 17] | 64 |
